Experimental data reported in patent publication US10882859B2, “Kinase inhibitors” (Topivert Pharma Limited, priority 2015, dated 2021).
Like-named read-outs stand apart in the source and are kept apart here.

Legend:
[1] = test system: CD3/IL2 stimulated PBMC cells; assay: IFNγ release from CD3/IL2 stimulated PBMC cells; assay type: cell-based; conditions: Homo sapiens, CD3/IL2 stimulation, 48 h, ELISA
Protocol: PBMCs from healthy subjects are separated from whole blood using a density gradient (Lymphoprep, Axis-Shield Healthcare). Cells are added to a 96 well plate, and compound at the desired concentration added 2 hours prior to stimulation with a mixture of monoclonal antibody to CD3 (1 μg/ml, eBioscience) and human recombinant IL2 (10 ng/ml, Peprotech). After 48 hours incubation under normal tissue culture conditions, supernatants are collected and IFNγ release determined by Sandwich ELISA (Duo-set, R&D System). The IC50 is determined from the dose response curve.

Jurkat cells = assay: Cell cytotoxicity assay (propidium iodide, flow cytometry); assay type: cell-based, human; conditions: 24 h
Protocol: 1×10^5 Jurkat cells (immortalised human T lymphocytes) are added to the appropriate number of wells of a 96 well plate in 100 μL of media (RPMI supplemented with 10% foetal bovine serum). 1 μL of DMSO control (final concentration 1.0% v/v) or test compound (final concentration 20, 5 or 1 μg/mL) is added to the wells and incubated at 37° C., 5% CO2. After 24 hours, the plate is centrifuged at 1200 rpm for 3 minutes and the supernatant discarded. Cells are then resuspended in 150 μL (final concentration 7.5 μg/mL) of propidium iodide (PI) in PBS and incubated at 37° C., 5% CO2 for 15 minutes. After 15 minutes, cells are analysed by flow cytometry (BD accuri) using the FL3 window. The % viability is calculated as the % of cells that are PI negative in the test wells normalised to the DMSO control.

[2] = Systemic pharmacokinetics and total colon tissue distribution after single oral administration; assay type: in vivo, male C57BL/6 mice; conditions: mice, oral 10 mg/kg; for concentration at 0.5 h / concentration at 1 h / concentration at 2 h / concentration at 4 h / concentration at 6 h / concentration at 8 h / concentration at 12 h / concentration at 24 h: male, C57BL/6, mouse
Protocol: Studies were conducted by Sai Life Sciences (Hinjewadi, Pune, India) to investigate the systemic pharmacokinetics and total colon tissue distribution of compounds of the invention following a single oral administration in male C57BL/6 mice.
A group of twenty four male mice were administered with a solution of test compound formulated at a dose of 10 mg/10 mL/kg in aqueous hydroxypropyl-β-cyclodextrin (20% w/v in water). Blood samples ([…]) were collected from retro-orbital plexus of each mouse under light isoflurane anaesthesia such that the samples were obtained at 0.5, 1, 2, 4, 6, 8, 12 and 24 hr. The blood samples were collected from a set of three mice at each time point in a labeled micro centrifuge tube containing K2EDTA as anticoagulant. Plasma samples were separated by centrifugation at 4000 rpm for 10 min and stored below −70° C. until bioanalysis. After collection of blood sample, animals were humanely euthanized by carbon dioxide asphyxiation to collect total colon tissues. The colons were flushed with cold PBS (pH7.4) to remove contents. The total colon tissues were homogenized with cold PBS (pH7.4) of twice the weight of colon tissue and stored below −70° C. Total volume was three times the total colon tissue weights. All samples were processed for analysis by protein precipitation using acetonitrile and analyzed with a fit-for-purpose LC-MS/MS method. Pharmacokinetic parameters were calculated using the non-compartmental analysis tool of Phoenix WinNonlin® (Version 6.3).

[3] = total colon tissue, total colon, read-out: Mean total colon level
[4] = plasma, read-out: Mean plasma concentration

SMILES | IC50 [1] | % viability at 1 μg/mL (Jurkat cells) | also measured
CCc1cc(O)c(F)cc1-c1ccc2c(-c3nc4c([nH]3)CCN(S(=O)(=O)N3CCOCC3)C4)n[nH]c2c1 [Example 6(e), 5-ethyl-2-fluoro-4-(3-(5-(morpholinosulfonyl)-4,5,6,7-tetrahydro-1H-imidazo[4,5-c]pyridin-2-yl)-1H-indazol-6-yl)phenol] | 4.7 nM | 64% | –
CCc1cc(O)c(F)cc1-c1ccc2c(-c3nc4c([nH]3)CCN(S(=O)(=O)N(CCC#N)CCOC)C4)n[nH]c2c1 [Example 6(a), N-(2-cyanoethyl)-2-(6-(2-ethyl-5-fluoro-4-hydroxyphenyl)-1H-indazol-3-yl)-N-(2-methoxyethyl)-6,7-dihydro-1H-imidazo[4,5-c]pyridine-5(4H)-sulfonamide] | 9.5 nM | 79% | –
CCc1cc(O)c(F)cc1-c1ccc2c(-c3nc4c([nH]3)CCN(S(=O)(=O)N3CCS(=O)(=O)CC3)C4)n[nH]c2c1 [Example 6(g), 4-((2-(6-(2-ethyl-5-fluoro-4-hydroxyphenyl)-1H-indazol-3-yl)-6,7-dihydro-1H-imidazo[4,5-c]pyridin-5(4H)-yl)sulfonyl)thiomorpholine 1,1-dioxide] | 7.2 nM | 88% | –
CCc1cc(O)c(F)cc1-c1ccc2c(-c3nc4c([nH]3)CCN(S(=O)(=O)N3CCC(OC)CC3)C4)n[nH]c2c1 [Example 6(i), 5-Ethyl-2-fluoro-4-(3-(5-((4-methoxypiperidin-1-yl)sulfonyl)-4,5,6,7-tetrahydro-1H-imidazo[4,5-c]pyridin-2-yl)-1H-indazol-6-yl)phenol] | 14 nM | 86% | –
CCc1cc(O)c(F)cc1-c1ccc2c(-c3nc4c([nH]3)CCN(S(=O)(=O)N3CCCC3)C4)n[nH]c2c1 [Example 6(d), 5-ethyl-2-fluoro-4-(3-(5-(pyrrolidin-1-ylsulfonyl)-4,5,6,7-tetrahydro-1H-imidazo[4,5-c]pyridin-2-yl)-1H-indazol-6-yl)phenol] | 8.3 nM | 74% | –
CCc1cc(O)c(F)cc1-c1ccc2c(-c3nc4c([nH]3)CCN(S(=O)(=O)N3CCN(C)CC3)C4)n[nH]c2c1 [Example 6(f), 5-ethyl-2-fluoro-4-(3-(5-((4-methylpiperazin-1-yl)sulfonyl)-4,5,6,7-tetrahydro-1H-imidazo[4,5-c]pyridin-2-yl)-1H-indazol-6-yl)phenol] | 9 nM | 29% | –
CCc1cc(O)c(F)cc1-c1ccc2c(-c3nc4c([nH]3)CCN(C(=O)N(C)c3ccccc3)C4)n[nH]c2c1 [Example 2(e), 2-(6-(2-ethyl-5-fluoro-4-hydroxyphenyl)-1H-indazol-3-yl)-N-methyl-N-phenyl-1,4,6,7-tetrahydro-5H-imidazo[4,5-c]pyridine-5-carboxamide] | 10.9 nM | 92% | –
CCc1cc(O)c(F)cc1-c1ccc2c(-c3nc4c([nH]3)CCN(C(=O)NCCOCCOC)C4)n[nH]c2c1 [Example 4(a), 2-(6-(2-ethyl-5-fluoro-4-hydroxyphenyl)-1H-indazol-3-yl)-N-(2-(2-methoxyethoxy)ethyl)-6,7-dihydro-1H-imidazo[4,5-c]pyridine-5(4H)-carboxamide] | 14.6 nM | 60% | –
CCc1cc(O)c(F)cc1-c1ccc2c(-c3nc4c([nH]3)CCN(C(=O)Nc3cn(C)c(=O)n(C)c3=O)C4)n[nH]c2c1 [Example 4(d), N-(1,3-dimethyl-2,4-dioxo-1,2,3,4-tetrahydropyrimidin-5-yl)-2-(6-(2-ethyl-5-fluoro-4-hydroxyphenyl)-1H-indazol-3-yl)-6,7-dihydro-1H-imidazo[4,5-c]pyridine-5(4H)-carboxamide] | 19.2 nM | 60% | –
CCc1cc(O)c(F)cc1-c1ccc2c(-c3nc4c([nH]3)CCN(C(=O)NCC3CCOCC3)C4)n[nH]c2c1 [Example 3, 2-(6-(2-Ethyl-5-fluoro-4-hydroxyphenvl)-1H-indazol-3-yl)-N-((tetrahydro-2H-byran-4-yl)methyl)-6,7-dihydro-1H-imidazo[4,5-c]pyridine-5(4)-carboxamide] | 19.5 nM | 91% | –
CCc1cc(O)c(F)cc1-c1ccc2c(-c3nc4c([nH]3)CCN(S(=O)(=O)N3CCN(C=O)CC3)C4)n[nH]c2c1 [Example 6(h), 4-((2-(6-(2-ethyl-5-fluoro-4-hydroxyphenyl)-1H-indazol-3-yl)-6,7-dihydro-1H-imidazo[4,5-c]pyridin-5(4H)-yl)sulfonyl)piperazine-1-carbaldehyde] | 37.4 nM | 93% | –
CCc1cc(O)c(F)cc1-c1ccc2c(-c3nc4c([nH]3)CCN(S(=O)(=O)N3CCN(S(C)(=O)=O)CC3)C4)n[nH]c2c1 [Example 5] | 17.8 nM | 87% | –
CCc1cc(O)c(F)cc1-c1ccc2c(-c3nc4c([nH]3)CCN(S(=O)(=O)N(C)C3CCOCC3)C4)n[nH]c2c1 [Example 6(c), 2-(6-(2-ethyl-5-fluoro-4-hydroxyphenyl)-1H-indazol-3-yl)-N-methyl-N-(tetrahydro-2H-pyran-4-yl)-6,7-dihydro-1H-imidazo[4,5-c]pyridine-5(4H)-sulfonamide] | 9.3 nM | 76% | –
CCc1cc(O)c(F)cc1-c1ccc2c(-c3nc4c([nH]3)CCN(C(=O)c3cnc(N5CCCCC5)cn3)C4)n[nH]c2c1 [Reference Compound, reference compound] | – | 49% | concentration at 0.5 h [2, 3]: 344 ng/g; concentration at 1 h [2, 3]: 102 ng/g; concentration at 2 h [2, 3]: 2370 ng/g; concentration at 4 h [2, 3]: 2970 ng/g; concentration at 6 h [2, 3]: 201 ng/g; concentration at 8 h [2, 3]: 2560 ng/g; concentration at 12 h [2, 3]: 3230 ng/g; concentration at 24 h [2, 3]: 16.6 ng/g; concentration at 0.5 h [2, 4]: 5.2 ng/mL; concentration at 1 h [2, 4]: 12.8 ng/mL; concentration at 2 h [2, 4]: 2.2 ng/mL; concentration at 4 h [2, 4]: 14.4 ng/mL; concentration at 6 h [2, 4]: 114 ng/mL; concentration at 8 h [2, 4]: 95 ng/mL; concentration at 12 h [2, 4]: 0 ng/mL; concentration at 24 h [2, 4]: 0 ng/mL; Colonic exposure AUC0-24 h ([2]; total colon): 43,739 h·ng/g
CCc1cc(O)c(F)cc1-c1ccc2c(-c3nc4c([nH]3)CCN(C(=O)N3CCN(CC)C(=O)C3=O)C4)n[nH]c2c1 [Example 2(c), 1-ethyl-4-(2-(6-(2-ethyl-5-fluoro-4-hydroxyphenyl)-1H-indazol-3-yl)-4,5,6,7-tetrahydro-1H-imidazo[4,5-c]pyridine-5-carbonyl)piperazine-2,3-dione] | 129 nM | 99% | –
